Measured values as given in US20050049294A1, “Methods of using [3.2.0] heterocyclic compounds and analogs thereof” (priority 2003, published 2005).
Like-named read-outs stand apart in the source and are kept apart here.

Tests used:
[1] = target: PGPH (caspase-like) activity of rabbit muscle 20S proteasomes (Oryctolagus cuniculus, UniProt A0A5F9DQW2); test: Inhibition of caspase-like (PGPH) activity of 20S proteasome (Z-LLE-AMC); format: biochemical; conditions: Table 3; mean EC50; purified rabbit 20S proteasomes
Sequence of PGPH (caspase-like) activity of rabbit muscle 20S proteasomes (A0A5F9DQW2 1-212): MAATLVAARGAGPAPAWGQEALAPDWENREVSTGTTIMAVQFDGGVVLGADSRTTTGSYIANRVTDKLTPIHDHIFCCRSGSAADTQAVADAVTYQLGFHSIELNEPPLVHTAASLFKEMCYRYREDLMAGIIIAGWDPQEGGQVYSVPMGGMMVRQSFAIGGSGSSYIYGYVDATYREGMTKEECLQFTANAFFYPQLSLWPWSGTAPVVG
Description: A commercially available fluorogenic substrate specific for the PGPH activity was used instead of the chymotrypsin substrate supplied in the proteasome assay kit described above.
The substrate Z-LLE-AMC was prepared as a 20 mM stock solution in DMSO, stored at −20° C. The source of the proteasomes was the commercially available kit from Calbiochem (Cat. #539158). As with the chymotrypsin substrate, the proteasome can cleave Z-LLE-AMC into Z-LLE and free AMC. The activity can then be determined by measuring the fluorescence of the released AMC (λex=390 nm and λem=460 nm). The proteasomes were activated with SDS and held on ice as per manufacturer's recommendation. […] The series was diluted 20-fold with assay buffer and preincubated with the proteasomes as described for the chymotrypsin-like activity. After addition of substrate, the samples were incubated at 37° C., and release of the fluorescent AMC was monitored in a fluorimeter. All data were collected and plotted as the mean of triplicate points. […] As before, the model chosen was a sigmoidal dose-response, with a variable slope.

[2] = system: NF-κB-mediated luciferase activity in HEK293 NF-κB/Luc cells; test: NF-κB-mediated luciferase reporter gene assay; format: cell-based, human; conditions: for luciferase activity upon TNF-α stimulation: pretreatment of NF-κB/Luc 293 cells; for EC50: Homo sapiens
Description: (§1) The HEK293 NF-κB/luciferase reporter cell line is a derivative of the human embryonic kidney cell line (ATCC; CRL- 1573) and carries a luciferase reporter gene under the regulation of 5×NF-κB binding sites. […] When performing the luciferase assay, the DMEM basal medium was replaced with phenol-red free DMEM basal medium and the G418 was omitted.
For NF-κB-mediated luciferase assays, HEK293 NF-κB/luciferase cells were seeded at 1.5×10^4 cells/well in 90 μl phenol-red free DMEM complete medium into Corning 3917 white opaque-bottom tissue culture plates. […] This dilution series was further diluted 40× in appropriate culture medium and ten μl aliquots were added to the test wells in triplicate resulting in final test concentrations ranging from 1 μM to 320 pM. […] For Formula II-19, a 127 μM starting dilution was made in 100% DMSO and the final test concentrations ranging from 317 nM to 0.1 nM. […] After 1 hr pretreatment, 10 μl of a 50 ng/ml TNF-α solution, prepared in the phenol-red free DMEM medium was added, and the plates were incubated for an additional 6 hr.
NF-κB inducible luciferase activity was measured at 6 hours.
as §1, with “CRL-1573)” for “CRL- 1573)”
For NF-κB-mediated luciferase assays, HEK293 NF-κB/luciferase cells were seeded at 1.5×10^4 cells/well in 90 μl phenol-red free DMEM complete medium into Corning 3917 white opaque-bottom tissue culture plates. For Formula II-2, Formula II-4 and Formula II-5A, a 400 μM starting dilution was made in 100% DMSO and this dilution was used to generate a 8-point half log dilution series. This dilution series was further diluted 40× in appropriate culture medium and ten μl aliquots were added to the test wells in triplicate resulting in final test concentrations ranging from 1 μM to 320 pM. […] After 1 hr pretreatment, 10 μl of a 50 ng/ml TNF-α solution, prepared in the phenol-red free DMEM medium was added, and the plates were incubated for an additional 6 hr.
The relative luciferase units (RLU) were measured by using a Fusion microplate fluorometer (Packard Bioscience).

[3] = system: B16-F10 cells; test: Cell growth inhibition (resazurin, 48 hours), B16-F10; format: cell-based, mouse
[4] = system: HT-29 cells; test: Cell growth inhibition (resazurin, 48 hours), HT-29; format: cell-based; conditions: Homo sapiens
[5] = system: MDA-MB-231 cells; test: Cell growth inhibition (resazurin, 48 hours), MDA-MB-231; format: cell-based; conditions: Homo sapiens
[6] = system: RPMI 8226 cells; test: Cell growth inhibition (resazurin, 48 hours), RPMI 8226
[7] = target: T1, trypsin-like activity of purified rabbit 20S proteasomes (Oryctolagus cuniculus, UniProt G1SWK8); conditions: under the conditions tested
T1 sequence (G1SWK8 1-271): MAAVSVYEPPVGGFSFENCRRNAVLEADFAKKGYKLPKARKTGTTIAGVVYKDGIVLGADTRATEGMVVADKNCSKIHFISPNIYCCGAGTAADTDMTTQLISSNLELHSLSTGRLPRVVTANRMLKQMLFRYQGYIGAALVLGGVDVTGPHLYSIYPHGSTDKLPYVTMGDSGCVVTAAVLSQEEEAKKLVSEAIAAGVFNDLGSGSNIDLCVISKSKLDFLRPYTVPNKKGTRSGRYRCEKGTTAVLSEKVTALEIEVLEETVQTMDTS

[8] = system: PANC-1 cells; test: Cell growth inhibition (resazurin, 48 hours), PANC-1; format: cell-based; conditions: Table 2, PANC-1, human pancreatic carcinoma, read-out: EC50 (nM), mean ± SD
[9] = target: CYP2C9 (Homo sapiens, UniProt P11712); test: Preliminary P450 inhibition screen, CYP2C9
Sequence of CYP2C9 (P11712 whole entry): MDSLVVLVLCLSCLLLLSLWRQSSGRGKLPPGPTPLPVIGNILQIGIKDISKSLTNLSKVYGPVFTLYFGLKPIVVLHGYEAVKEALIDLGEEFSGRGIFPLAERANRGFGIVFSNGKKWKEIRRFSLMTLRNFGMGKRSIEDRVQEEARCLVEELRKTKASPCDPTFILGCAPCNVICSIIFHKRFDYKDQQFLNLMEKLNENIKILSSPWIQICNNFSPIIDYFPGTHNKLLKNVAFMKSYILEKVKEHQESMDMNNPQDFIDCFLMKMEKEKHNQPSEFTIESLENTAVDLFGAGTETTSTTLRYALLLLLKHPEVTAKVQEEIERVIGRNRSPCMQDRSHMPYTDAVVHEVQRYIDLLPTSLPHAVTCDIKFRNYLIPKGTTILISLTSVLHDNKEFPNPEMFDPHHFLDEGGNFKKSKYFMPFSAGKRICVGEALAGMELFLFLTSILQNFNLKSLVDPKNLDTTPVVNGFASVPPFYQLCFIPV
Description: These studies consisted of solubility assessment, LogD^7.4 determination and a preliminary screen to detect cytochrome P450 enzyme inhibition.

[10] = Mus musculus, B16-F10, Table 13, B16-F10
[11] = Homo sapiens, RPMI-8226, Table 13, RPMI 8226
[12] = Homo sapiens, RPMI-8226, read-out: RPMI 8226 EC50 (nM), Table 15, mean EC50

SMILES | EC50 [1] | luciferase activity upon TNF-α stimulation [2] | EC50 [3, 10] | EC50 ([3]; Table 13, B16-F10) | EC50 ([4]; HT-29) | EC50 ([5]; MDA-MB-231) | EC50 [6, 11] | EC50 [6, 12] | % cytotoxicity, mean ± SD ([6]; Table 9, RPMI 8226, 48 hour) | inhibit the trypsin-like activity of the 20S proteasome [7] | other results
C[C@@]12OC(=O)[C@]1([C@@H](O)[C@@H]1C=CCCC1)NC(=O)[C@@H]2CCBr [Formula II-18] | 250 nM | dose-dependent decrease | 19 nM | 36 nM | 18 ± 7.8 nM | 16 ± 2.8 nM | 0.0063 µM | 0.0063 µM | 94, 94% | able to inhibit | EC50 ([6]; Homo sapiens, RPMI-8226, 48 h, read-out: EC50, μM (mean ± SD), Table 9, RPMI 8226, 48 hour): 0.017 µM; EC50 ([6]; read-out: EC50, μM (mean ± SD), Table 9, RPMI 8226, 48 hour): 0.022 µM
C[C@@]12OC(=O)[C@]1([C@@H](O)C1CCCCC1)NC(=O)[C@@H]2CCBr [Formula II-4] |  | dose-dependent decrease | 163 nM | 175 nM |  | 114 ± 4 nM | 0.057 µM | 0.054 µM |  | able to inhibit | EC50 ([2]; HEK293, read-out: calculated EC50 to inhibit NF-κB inducible luciferase activity): 67 nM; EC50 ([4]; Table 13, HT-29, read-out: EC50): 132 ± 36 nM
C[C@@]12OC(=O)[C@]1([C@@H](O)[C@@H]1C=CCCC1)NC(=O)[C@@H]2CCCl [Formula II-16, Salinosporamide A] |  | dose-dependent decrease |  |  |  |  |  |  | 94 ± 0% | able to inhibit | EC50 ([2]; HEK293, 6 h, read-out: calculated EC50 for inhibition of NF-κB/luciferase activity): ~7 nM; EC50 ([3]; Mus musculus, B16-F10, 48 h): 33 nM; EC50 ([3]; Mus musculus, B16-F10, 48 h, read-out: EC50 (nM), mean ± SD): 47 ± 20 nM; EC50 ([4]; HT-29, 48 h): 47 nM; EC50 ([4]; HT-29, 48 h, read-out: EC50 (nM), mean ± SD): 40 ± 26 nM; EC50 ([5]; MDA-MB-231, 48 h): 67 nM; EC50 ([5]; MDA-MB-231, 48 h, read-out: EC50 (nM), mean ± SD): 87 ± 40 nM; EC50 [8]: 60 nM; EC50 ([6]; Homo sapiens, RPMI-8226, 48 h, read-out: EC50 (nM), mean ± SD): 0.0086 ± 0.0019 µM; EC50 ([6]; Homo sapiens, RPMI-8226, read-out: EC50 (nM), mean ± SD): 0.01 ± 0.003 µM; % cytotoxicity, mean ± SD ([6]; Table 6, RPMI 8226 (n = 5)): 94 ± 1%; inhibition at 10 µM [9]: 6%
C[C@@]12OC(=O)[C@]1([C@@H](O)C1CCCCC1)NC(=O)[C@@H]2CCCl [Formula II-2] | 1500 nM | dose-dependent decrease | 194 nM |  | 129 ± 21 nM | 121 ± 23 nM | 0.049 µM | 0.047 µM |  | able to inhibit | EC50 ([2]; HEK293, representative experiment, Example 43 (FIG. 44, 45), read-out: calculated EC50 to inhibit NF-κB inducible luciferase activity): 73 nM; EC50 ([6]; Table 13, RPMI 8226): 0.045 µM
